# Laboratory results published in patent US20240002425A1, “NOVEL AMINOALKYL GLUCOSAMINIDE 4-PHOSPHATE DERIVATIVE” (DAIICHI SANKYO COMPANY, LIMITED, priority 2020, published 2024).
# Target: human TLR4 (Homo sapiens, UniProt O00206+Q9Y6Y9)
# Test: Human TLR4 activating effect (HEK-Blue Human TLR4 Cells, SEAP reporter)
# Format: cell-based
# Conditions: 24 hours, SEAP Protein concentration, read-out: EC50 (ng/ml) (converted)
# Protocol: The human TLR4 activating effect was studied using the compounds described in Examples 1 to 17 and monophosphoryl lipid A as Comparative Example A.
# Triethanolamine was dissolved at 0.5% (v/v) in injectable distilled water to prepare an aqueous triethanolamine solution. 1 mg of each test drug was dissolved in 0.98 mL of the aqueous triethanolamine solution, and pH of the solution was then adjusted to 7.2 to 7.4 by the addition of 20 μL of 1 M HCl to prepare a 1 mg/mL solution. A dilution series of the test drug was prepared using a medium [DMEM (Nacalai Tesque, Inc.), 10% FBS (Sigma-Aldrich Co. LLC), 50 U/mL penicillin-50 μg/mL streptomycin (Thermo Fisher Scientific Inc.), 1×HEK-Blue Selection (InvivoGen), and 100 μg/mL Normocin (InvivoGen)]. 2×10^5 cells/mL HEK-Blue™ Human TLR4 Cells (InvivoGen) were inoculated to each well of a 96-well microplate for tissue culture (Iwaki), then treated with the test drug, and cultured at 37° C. for 24 hours under 5% CO2. The cells thus cultured were centrifuged at 400×g at 4° C. for 3 minutes. Recombinant SEAP Protein (InvivoGen) was used for a calibration curve. After addition of 180 μL of QUANTI-Blue (InvivoGen) to each well of 96 Well TC-Treated Microplates (Corning, Inc.), 20 μL each of the cell culture supernatant and a standard diluting solution was added to each well, and the plate was left standing at 37° C. for 4 hours. After reaction, absorbance (wavelength: 655 nm) was measured using a microplate reader (PerkinElmer, Inc., EnSpire), and a SEAP Protein concentration was calculated from the calibration curve and used as an index for TLR4 agonist activity. A drug concentration that induced reaction corresponding to 50% of the maximum reaction was calculated as EC50 (ng/mL) from a linear expression using two drug concentrations between which the drug concentration that induced reaction corresponding to 50% of the maximum reaction in each experiment was positioned, and measured values thereof.
# human TLR4, sequence (O00206 24-839): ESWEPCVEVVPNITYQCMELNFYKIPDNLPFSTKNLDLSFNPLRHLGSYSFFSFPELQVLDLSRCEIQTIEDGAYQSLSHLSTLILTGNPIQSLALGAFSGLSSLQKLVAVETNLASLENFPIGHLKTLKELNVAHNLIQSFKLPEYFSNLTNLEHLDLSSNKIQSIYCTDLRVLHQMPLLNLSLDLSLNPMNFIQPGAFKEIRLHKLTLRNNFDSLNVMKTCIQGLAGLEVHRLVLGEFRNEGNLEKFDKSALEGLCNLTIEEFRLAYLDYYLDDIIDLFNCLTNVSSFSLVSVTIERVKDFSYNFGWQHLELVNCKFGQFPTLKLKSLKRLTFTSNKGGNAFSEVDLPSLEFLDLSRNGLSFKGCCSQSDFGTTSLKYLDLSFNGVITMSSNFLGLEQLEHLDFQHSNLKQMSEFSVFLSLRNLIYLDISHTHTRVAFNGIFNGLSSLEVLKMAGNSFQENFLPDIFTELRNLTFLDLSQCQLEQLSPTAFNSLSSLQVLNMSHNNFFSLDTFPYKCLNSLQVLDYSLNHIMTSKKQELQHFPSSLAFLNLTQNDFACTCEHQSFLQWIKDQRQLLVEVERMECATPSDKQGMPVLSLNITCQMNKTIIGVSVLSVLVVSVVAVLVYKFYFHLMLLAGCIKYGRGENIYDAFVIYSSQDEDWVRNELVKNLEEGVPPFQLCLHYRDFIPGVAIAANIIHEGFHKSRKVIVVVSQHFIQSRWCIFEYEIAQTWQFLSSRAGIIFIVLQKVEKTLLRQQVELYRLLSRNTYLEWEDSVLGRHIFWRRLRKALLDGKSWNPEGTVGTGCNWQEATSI
# human TLR4, sequence (Q9Y6Y9 17-160 limits assumed): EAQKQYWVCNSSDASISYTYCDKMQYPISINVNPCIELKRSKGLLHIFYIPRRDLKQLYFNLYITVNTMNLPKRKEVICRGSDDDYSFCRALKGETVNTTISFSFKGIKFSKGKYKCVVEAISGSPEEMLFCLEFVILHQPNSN
row,EC50,SMILES
1,0.612 nM,"CCCCCCCCCCC[C@H](CC(=O)N[C@@H](CO[C@@H]1O[C@H](CO)[C@@H](OP(=O)(O)O)[C@H](OC(=O)C[C@@H](CCCCCCCCCCC)OC(=O)CCCCCCCCC)[C@H]1NC(=O)C[C@@H](CCCCCCCCCCC)OC(=O)CCCCCCCCC)CC(=O)O)OC(=O)CCCCCCCCC [Example 1(1k), Bisammonium (3R)-3-{[(3R)-3-(decanoyloxy)tetradecanoyl]amino}-4-({3-O-[(3R)-3-(decanoyloxy)tetradecanoyl]-2-{[(3R)-3-(decanoyloxy)tetradecanoyl]amino}-2-deoxy-4-O-phosphono-β-D-glucopyranosyl}oxy)butanoate]"
2,0.0661 nM,"CCCCCCCCCCC[C@H](CC(=O)NC1C(OC[C@H](NC(=O)C[C@@H](CCCCCCCCCCC)OC(=O)CCCCCCCCC)C(=O)O)OC(COC2OC(C(=O)O)C(O)C(O)C2O)C(OP(=O)(O)O)C1OC(=O)C[C@@H](CCCCCCCCCCC)OC(=O)CCCCCCCCC)OC(=O)CCCCCCCCC (stereo partly drawn) [Example 6(6b), Ammonium (2S)-2-{[(3R)-3-(decanoyloxy)tetradecanoyl]amino}-3-({3-O-[(3R)-3-(decanoyloxy)tetradecanoyl]-2-{[(3R)-3-(decanoyloxy)tetradecanoyl]amino}-2-deoxy-6-β-D-glucopyranuronosyl-4-O-phosphono-β-D-glucopyranosyl}oxy)propanoate]"
3,0.396 nM,"CCCCCCCCCCC[C@H](CC(=O)N[C@H]1[C@H](OC[C@H](NC(=O)C[C@@H](CCCCCCCCCCC)OC(=O)CCCCCCCCC)C(=O)O)O[C@H](CO[C@@H]2O[C@H](CO)[C@@H](O)[C@H](O)[C@H]2NC(C)=O)[C@@H](OP(=O)(O)O)[C@@H]1OC(=O)C[C@@H](CCCCCCCCCCC)OC(=O)CCCCCCCCC)OC(=O)CCCCCCCCC [Example 7(7c), Ammonium (2S)-3-{[6-O-(2-acetamido-2-deoxy-β-D-glucopyranosyl)-3-O-[(3R)-3-(decanoyloxy)tetradecanoyl]-2-{[(3R)-3-(decanoyloxy)tetradecanoyl]amino}-2-deoxy-4-O-phosphono-β-D-glucopyranosyl]oxy}-2-{[(3R)-3-(decanoyloxy)tetradecanoyl]amino}propanoate]"
4,0.288 nM,"CCCCCCCCCCC[C@H](CC(=O)N[C@H]1[C@H](OC[C@H](NC(=O)C[C@@H](CCCCCCCCCCC)OC(=O)CCCCCCCCC)C(=O)O)O[C@H](CO[C@@H]2O[C@H](COP(=O)(O)O)[C@@H](O)[C@H](O)[C@H]2NC(C)=O)[C@@H](OP(=O)(O)O)[C@@H]1OC(=O)C[C@@H](CCCCCCCCCCC)OC(=O)CCCCCCCCC)OC(=O)CCCCCCCCC [Example 9(9e), Ammonium (2S)-3-({6-O-[2-acetamido-2-deoxy-6-O-(hydroxyphosphinato)-β-D-glucopyranosyl]-3-O-[(3R)-3-(decanoyloxy)tetradecanoyl]-2-{[(3R)-3-(decanoyloxy)tetradecanoyl]amino}-2-deoxy-4-O-phosphono-β-D-glucopyranosyl}oxy)-2-{[(3R)-3-(decanoyloxy)tetradecanoyl]amino}propanoate]"
5,0.667 nM,"CCCCCCCCCCC[C@H](CC(=O)NC1C(CC[C@@H](CC(=O)O)NC(=O)C[C@@H](CCCCCCCCCCC)OC(=O)CCCCCCCCC)OC(CO)C(OP(=O)(O)O)C1OC(=O)C[C@@H](CCCCCCCCCCC)OC(=O)CCCCCCCCC)OC(=O)CCCCCCCCC (stereo partly drawn) [Example 10(10r), Ammonium 6,10-anhydro-8-O-[(3R)-3-(decanoyloxy)tetradecanoyl]-3,7-bis{[(3R)-3-(decanoyloxy)tetradecanoyl]amino}-2,3,4,5,7-pentadeoxy-9-O-phosphono-D-erythro-L-galacto-undecanoate]"
6,0.291 nM,"CCCCCCCCCCC[C@H](CC(=O)NC1C(CC[C@@H](CC(=O)O)NC(=O)C[C@@H](CCCCCCCCCCC)OC(=O)CCCCCCCCC)OC(COC2(C(=O)O)CC(O)C(O)C([C@H](O)CO)O2)C(OP(=O)(O)O)C1OC(=O)C[C@@H](CCCCCCCCCCC)OC(=O)CCCCCCCCC)OC(=O)CCCCCCCCC (stereo partly drawn) [Example 11(11d), Ammonium 6,10-anhydro-8-O-[(3R)-3-(decanoyloxy)tetradecanoyl]-3,7-bis{[(3R)-3-(decanoyloxy)tetradecanoyl]amino}-2,3,4,5,7-pentadeoxy-11-O-(3-deoxy-α-D-manno-oct-2-ulopyranonosyl)-9-O-phosphono-D-erythro-L-galacto-undecanoate]"
7,1.61 nM,"CCCCCCCCCCC[C@H](CC(=O)NC1C(CC[C@H](NC(=O)C[C@@H](CCCCCCCCCCC)OC(=O)CCCCCCCCC)C(=O)O)OC(CO)C(OP(=O)(O)O)C1OC(=O)C[C@@H](CCCCCCCCCCC)OC(=O)CCCCCCCCC)OC(=O)CCCCCCCCC (stereo partly drawn) [Example 13(130), Ammonium 5,9-anhydro-7-O-[(3R)-3-(decanoyloxy)tetradecanoyl]-2,6-bis{[(3R)-3-(decanoyloxy)tetradecanoyl]amino}-2,3,4,6-tetradeoxy-8-O-phosphono-D-erythro-L-galacto-decanoate]"

row,SMILES,EC50
1,"CCCCCCCCCCC[C@H](CC(=O)NC1C(OC[C@@H](CC(=O)O)NC(=O)C[C@@H](CCCCCCCCCCC)OC(=O)CCCCCCCCC)OC(COC2(C(=O)O)CC(OC3(C(=O)O)CC(O)C(O)C([C@H](O)CO)O3)C(O)C([C@H](O)CO)O2)C(OP(=O)(O)O)C1OC(=O)C[C@@H](CCCCCCCCCCC)OC(=O)CCCCCCCCC)OC(=O)CCCCCCCCC (stereo partly drawn) [Example 3(3d), Ammonium (3R)-3-{[(3R)-3-(decanoyloxy)tetradecanoyl]amino}-4-{[3-deoxy-α-D-manno-oct-2-ulopyranonosyl-(2-+4)-3-deoxy-α-D-manno-oct-2-ulopyranonosyl-(2-+6)-3-O-[(3R)-3-(decanoyloxy)tetradecanoyl]-2-{[(3R)-3-(decanoyloxy)tetradecanoyl]amino}-2-deoxy-4-O-phosphono-β-D-glucopyranosyl]oxy}butanoate]",0.422 nM
2,"CCCCCCCCCCC[C@H](CC(=O)N[C@H]1[C@H](OC[C@H](NC(=O)C[C@@H](CCCCCCCCCCC)OC(=O)CCCCCCCCC)C(=O)O)O[C@H](CO[C@]2(C(=O)O)C[C@@H](O)[C@@H](O)[C@@H]([C@H](O)CO)O2)[C@@H](OP(=O)(O)O)[C@@H]1OC(=O)C[C@@H](CCCCCCCCCCC)OC(=O)CCCCCCCCC)OC(=O)CCCCCCCCC [Example 4(4d), Ammonium (2S)-2-{[(3R)-3-(decanoyloxy)tetradecanoyl]amino}-3-({3-O-[(3R)-3-(decanoyloxy)tetradecanoyl]-2-{[(3R)-3-(decanoyloxy)tetradecanoyl]amino}-2-deoxy-6-O-(3-deoxy-α-D-manno-oct-2-ulopyranonosyl)-4-O-phosphono-β-D-glucopyranosyl}oxy)propanoate]",0.328 nM
3,"CCCCCCCCCCC[C@H](CC(=O)NC1C(OC[C@H](NC(=O)C[C@@H](CCCCCCCCCCC)OC(=O)CCCCCCCCC)C(=O)O)OC(COC2(C(=O)O)CC(OC3(C(=O)O)CC(O)C(O)C([C@H](O)CO)O3)C(O)C([C@H](O)CO)O2)C(OP(=O)(O)O)C1OC(=O)C[C@@H](CCCCCCCCCCC)OC(=O)CCCCCCCCC)OC(=O)CCCCCCCCC (stereo partly drawn) [Example 5(5d), Ammonium (2S)-2-{[(3R)-3-(decanoyloxy)tetradecanoyl]amino}-3-{[3-deoxy-α-D-manno-oct-2-ulopyranonosyl-(2-+4)-3-deoxy-α-D-manno-oct-2-ulopyranonosyl-(2-+6)-3-O-[(3R)-3-(decanoyloxy)tetradecanoyl]-2-{[(3R)-3-(decanoyloxy)tetradecanoyl]amino}-2-deoxy-4-O-phosphono-β-D-glucopyranosyl]oxy}propanoate]",0.187 nM
4,"CCCCCCCCCCC[C@H](CC(=O)N[C@H]1[C@H](OC[C@H](NC(=O)C[C@@H](CCCCCCCCCCC)OC(=O)CCCCCCCCC)C(=O)O)O[C@H](CO[C@@H]2O[C@H](CO)[C@@H](OP(=O)(O)O)[C@H](O)[C@H]2NC(C)=O)[C@@H](OP(=O)(O)O)[C@@H]1OC(=O)C[C@@H](CCCCCCCCCCC)OC(=O)CCCCCCCCC)OC(=O)CCCCCCCCC [Example 8(8f), Ammonium (2S)-3-({6-O-[2-acetamido-2-deoxy-4-O-(hydroxyphosphinato)-β-D-glucopyranosyl]-3-O-[(3R)-3-(decanoyloxy)tetradecanoyl]-2-{[(3R)-3-(decanoyloxy)tetradecanoyl]amino}-2-deoxy-4-O-phosphono-β-D-glucopyranosyl}oxy)-2-{[(3R)-3-(decanoyloxy)tetradecanoyl]amino}propanoate]",0.35 nM
5,"CCCCCCCCCCC[C@H](CC(=O)NC1C(CC[C@@H](CC(=O)O)NC(=O)C[C@@H](CCCCCCCCCCC)OC(=O)CCCCCCCCC)OC(COC2(C(=O)O)CC(OC3(C(=O)O)CC(O)C(O)C([C@H](O)CO)O3)C(O)C([C@H](O)CO)O2)C(OP(=O)(O)O)C1OC(=O)C[C@@H](CCCCCCCCCCC)OC(=O)CCCCCCCCC)OC(=O)CCCCCCCCC (stereo partly drawn) [Example 12(12d), Ammonium 3-deoxy-α-D-manno-oct-2-ulopyranonosyl-(2-+4)-3-deoxy-α-D-manno-oct-2-ulopyranonosyl-(2-+11)-6,10-anhydro-8-O-[(3R)-3-(decanoyloxy)tetradecanoyl]-3,7-bis{[(3R)-3-(decanoyloxy)tetradecanoyl]amino}-2,3,4,5,7-pentadeoxy-9-O-phosphono-D-erythro-L-galacto-undecanoate]",0.67 nM
